Laboratory results reported in patent publication US20250352511A1 (CHINOOK THERAPEUTICS, INC., priority 2022, published 2025).
Like-named read-outs stand apart in the source and are kept apart here.

Experiments:
patients with FSGS = test: Phase 2 open-label basket study, FSGS cohort: urine protein to creatinine ratio (UPCR); type: in vivo, human; conditions: 0.75 mg atrasentan daily; week 24 vs week 0; twenty patients with FSGS
Excerpt: Subjects will be enrolled in disease specific cohorts as follows: • Cohort 1: IgAN (with UPCR 0.5 to <1.[…]) • Cohort 2: FSGS • Cohort 2b: FSGS (dose escalation) • Cohort 3: Alport syndrome • Cohort 4: DKD • Cohort 5: FSGS (higher dose cohort) Subjects in Cohorts 2 and 5 (FSGS) include the following characteristics: • Biopsy-confirmed FSGS or documentation of a genetic mutation in a podocyte protein associated with FSGS. […] Urine Protein to Creatinine Ratio (UPCR) will be assessed. Assessment of proteinuria plays an important role in the diagnosis of kidney disease and in monitoring disease activity (Zhao, 2016). UPCR is widely used for proteinuria evaluation in clinical practice. UPCR will be measured using FMV urine sample and a 24-hour urine collection at timepoints. […] Twenty patients with FSGS were enrolled in the study if the inclusion and exclusion criteria of Example 1 were met.

subjects with DKD = conditions: RADAR Phase 2b, cited from earlier work
[1] = 0.75 mg dose; DKD; PK-PD exposure-response model; cited from earlier work
[2] = tested on: patients with diabetic kidney disease; conditions: cited from earlier work
[3] = daily dose 0.75 mg, dose-range finding studies and exposure-response analyses

For `CCCCN(CCCC)C(=O)CN1C[C@H](c2ccc3c(c2)OCO3)[C@@H](C(=O)O)[C@@H]1c1ccc(OC)cc1` [Atrasentan, (2R,3R,4S)-4-(1,3-benzodioxol-5-yl)-1-[2-(dibutylamino)-2-oxoethyl]-2-(4-methoxyphenyl)pyrrolidine-3-carboxylic acid], the “reduction in UPCR compared the baseline measurement” value (patients with FSGS) is given as 38.3%, the “fluid retention (body weight, edema incidence, treatment discontinuations)” value (subjects with DKD; 0.75 mg dose) is given as “only minimal evidence for fluid retention” and the proteinuria reduction (subjects with DKD; 0.75 mg dose) is given as 35%. For the same compound, the “fluid retention related adverse events” value (subjects with DKD; 1.25 mg dose) was “greater fluid retention related adverse events including treatment discontinuation”, the proteinuria reduction (subjects with DKD; 1.25 mg dose) was 38% and the Ctrough range [1] was 1.2 to 2.2 ng/mL. For the same compound, the UACR [2, 3] was “marked reduction”, the fluid retention [2, 3] was “only modest fluid retention” and the “risk of renal events (doubling of serum creatinine or end-stage kidney disease)” value ([2]; patients with diabetic kidney disease) was “significantly reducing the risk of renal events”. For the same compound, the “most common adverse events associated with treatment” value ([2]; subjects with DKD) was “fluid retention, hemodilution, and vasodilation”.
